We go through 2 molecules from article PMC8831520, “Small molecule SWELL1 complex induction improves glycemic control and nonalcoholic fatty liver disease in murine Type 2 diabetes” (Nature Communications, 2022).

In series [1] the test system is T1, SWELL1-LRRC8 channels in the closed state, HEK-293 cells.
T1 construct: applied when the endogenous HEK-293 cell ICl,SWELL current density reached 30 pA/pF; endogenous in cells; host or cells: HEK-293 (ATCC, #CRL-1573)
Briefly: ICl,SWELL inhibition on preincubation before hypotonic activation (closed channel), patch-clamp. In kind it is cell-based. The following applies: 1 μM applied 30 min prior to hypotonic activation, vs vehicle or Inactive compounds. On the technique in general: Patch clamp records ionic current or voltage across a cell membrane.

In series [2] the test system is endogenous SWELL1 in 3T3-F442A preadipocytes. Description: SWELL1 plasma membrane localization, immunofluorescence. The following applies: 1 or 10 µM, 48 h, vs vehicle or Inactive 1. It counts as cell-based, murine. Here is the method:
3T3-F442A preadipocytes (WT, KO) and differentiated adipocytes without or with SWELL1 overexpression (WT + SWELL1 O/E, KO + SWELL1 O/E) were prepared as described in the Cell culture section on collagen-coated coverslips. […] The cells were fixed in ice-cold acetone for 15 min at −20 °C and then washed four times with 1XPBS. […] Either anti-SWELL1 (1:400) or anti-Flag (1:1500, Sigma #F3165) antibody was added to the cells and incubated overnight at 4 °C. The cells were then washed three times (1XPBS) prior to and after the addition of 1:1000 Alexa Fluor 488/568 secondary antibody (anti-rabbit, #A11034 or anti-mouse, #A11004) for 1 h at RT. Cells were counterstained with nuclear TO-PRO-3 (Life Technologies, #T3605) or DAPI (Invitrogen, #D1306) staining (1 µM) for 20 min followed by three washes with 1XPBS. Coverslips were further mounted on slides with ProLong Diamond anti-fading media. All images were captured using Zeiss LSM700/LSM510 confocal microscope with 63X objective (NA 1.4). SWELL1 membrane localization was quantified by stacking all the z-images and converting it into a binary image where the cytoplasmic intensity per unit area was subtracted from the total cell intensity per unit area using ImageJ software.

For series [3], the system named is T2D and non-T2D mice. Description: Metabolic phenotyping: fasting glucose, GTT, ITT. On the procedure: (§1) All compounds were dissolved in Kolliphor® EL (Sigma, #C5135).
Mice were fasted for 6 h prior to glucose tolerance tests (GTT). Baseline glucose levels at 0 min timepoint (fasting glucose, FG) were measured from a blood sample collected from tail snipping using glucometer (Bayer Healthcare LLC). Either 1 or 0.75 g D-Glucose/kg body weight were injected (i.p.) for lean or HFD mice, respectively and glucose levels were measured at 5 or 7, 15, 30, 60, 90, and 120 min timepoints after injection. For insulin tolerance tests (ITTs), the mice were fasted for 4 h. Similar to GTTs, the baseline blood glucose levels were measured at 0 min timepoint and 15, 30, 60, 90, and 120 min timepoints post-injection (i.p.) of insulin (HumulinR, 1 U/kg bodyweight for lean mice or 1.25 U/kg body weight for HFD mice). […] The collected plasma was then measured for insulin content by using Ultra-Sensitive Mouse Insulin ELISA Kit (Crystal Chem, #90080). All mouse studies were performed in a blinded fashion.

The nature of series [4]: In vivo pharmacokinetics. Set-up: species or system mouse. The following applies: for T-half / AUC(0-inf) / Cmax / Oral Bioavailability (AUCp.o./AUCi.v.): 5 mg/kg; for T-half / AUC(0-inf) / Cmax / Oral Bioavailability (AUCp.o./AUCi.v.) / time plasma concentrations exceed those sufficient for induction of SWELL1 signaling activity (>~100 nM): mice; for T-half / AUC(0-inf) / Cmax: plasma; for AUC(0-inf) / Cmax: male, C57/BL6, mouse; for time plasma concentrations exceed those sufficient for induction of SWELL1 signaling activity (>~100 nM): 5 mg/kg i.p. or p.o. Here is the method: Male C57/BL6 mice were used in the study and assessed for a single dose (5 mg/kg) administration. The compounds were prepared in Cremaphor for i.p. and p.o dose routes and in 5% ethanol, 10% Tween-20, and water mix for i.v. route at a final concentration of 1 mg/mL. […] The blood samples were collected in tubes with K2 EDTA anticoagulant and further processed to collect plasma by centrifugation at 1383×g at 5 °C for 10 min. Samples were further processed in LC/MS to determine the concentration of the compounds. Non-compartmental analysis was performed to obtain the PK parameters using the PKPlus software package (Simulation Plus). The area under the plasma concentration-time curve (AUCinf) was calculated from time 0 to infinity where the Cmax is the maximal concentration achieved in plasma and t1/2 is the terminal elimination half-life. Oral bioavailability was calculated as AUCOral/AUCIV*100.

Series [5] has as its system SWELL1/LRRC8a-e mRNA in 3T3-F442A cells. Description: qRT-PCR of LRRC8 family mRNA. In kind it is cell-based, murine. The following applies: 10 µM, 96 h. Here is the method:
RNA samples were isolated using the PureLink RNA kit (Life Technologies) as per the manufacturer’s instructions. Complementary DNA (cDNA) synthesis was carried out using an iScript Reverse Transcriptase kit (Bio-Rad). […] Each sample measurement was carried out in triplicate. GAPDH was used as the internal standard and the fold change was calculated relative to GAPDH was normalized to vehicle group. The following qRT-PCR primers (5′ to 3′) were used: GAPDH forward—[…] and reverse— […]; SWELL1 forward—[…] and reverse— […]; LRRC8b forward—[…] and reverse— […]; LRRC8c forward—[…] and reverse—[…]; LRRC8d forward—[…] and reverse— […]; LRRC8e forward—[…] and reverse— […], respectively.
On the technique in general: In qPCR the cycle at which signal appears reflects the starting amount.

Series [6] is described as follows: Tolerability of chronic i.p. dosing. It counts as in vivo, mouse. The following applies: daily i.p. injections for up to 8 weeks. Here is the method: as §1
Series [7] deals with HFD-T2D mice. Briefly: NAFLD in HFD-fed mice: liver triglycerides, histology, NAS. In kind it is in vivo, mouse. Here is the method: Gross liver weights were measured and identical sections from the right medial lobe of the liver were dissected for further examinations. Total triglyceride content was determined by homogenization of 10–50 mg of tissue in 1.5 ml of chloroform:methanol (2:1 v/v) followed by centrifugation at 16,260×g for 10 min at 4 °C. A 20 µl of the supernatant was evaporated in a 1.5 ml microcentrifuge tube for 30 min. Triglyceride content was determined by adding 100 µl of Infinity Triglyceride Reagent (Fisher Scientific) to the dried sample followed by 30 min incubation at RT. The samples were then transferred to a 96-well plate along with standards (0–2000 mg/dl) and absorbance was measured at 540 nm and the final concentration was determined by normalizing to tissue weight. For histological examination, liver sections were fixed in 10% zinc formalin and paraffin-embedded for sectioning. Hematoxylin and eosin (H&E) stained sections were then assessed for steatosis grade, lobular inflammation, and hepatocyte ballooning for nonalcoholic fatty liver disease (NAFLD) scoring[46],[95],[96].

The mark [8] stands for this setting: 12–18 weeks HFD mice, 5 mg/kg/day × 4 days, pre- vs post-treatment.

Structures are written as SMILES.

Turning to `CCCCC1(C2CCCC2)Cc2cc(OCCCCCC(=O)O)c(Cl)c(Cl)c2C1=O` (centres unmarked) [SN-406, 6-((2-butyl-6,7-dichloro-2-cyclopentyl-1-oxo-2,3-dihydro-1H-inden-5-yl)oxy)hexanoic acid], the “subsequent hypotonic activation of ICl,SWELL” value in series [1] was “markedly suppressed and delayed”. Besides, the “plasma membrane (PM) localization of endogenous SWELL1” value in series [2] is “enhanced”. Further, in series [3] (setting [8]), the fasting blood glucose result is given as “markedly reduced” and the glucose tolerance entry is given as “improved”. Further, in series [3] (HFD-T2D mice, compared to Inactive 1), the “insulin sensitivity based on HOMA-IR” value is “trend toward improved insulin sensitivity”. Also, in series [3] (HFD-T2D mice, separate experiment, compared to Inactive 1), the glucose tolerance result is recorded as “significantly improved”. In series [4] (Intraperitoneal), the T-half stood at 1.809 h. In series [4] (Intravenous), this molecule displayed a T-half of 0.7689 h, an AUC(0-inf) of 6530 ng·h/mL and a peak concentration (Cmax) of 15100 ng/mL. Moreover, in series [4] (Oral), the T-half was 2.058 h, the area under the curve AUC(0-inf) worked out at 3130 ng·h/mL and the Cmax is 661 ng/mL. In series [4] (ip, Intraperitoneal), this molecule returned an area under the curve AUC(0-inf) of 18200 ng·h/mL and a Cmax of 4300 ng/mL. Besides, in series [4], the “Oral Bioavailability (AUCp.o./AUCi.v.)” value was found to be 48% and the “time plasma concentrations exceed those sufficient for induction of SWELL1 signaling activity (>~100 nM)” value fell in the range of 8 to 12 h.
On to `CCCCC1(C2CCCC2)Cc2cc(OCCCC(=O)O)c(Cl)c(Cl)c2C1=O` (centres unmarked) [SN-401, 4-((2-butyl-6,7-dichloro-2-cyclopentyl-1-oxo-2,3-dihydro-1H-inden-5-yl)oxy)butanoic acid], for which, in series [1], the “subsequent hypotonic activation of ICl,SWELL” value was “markedly suppressed and delayed”. In addition, in series [5], the “SWELL1 and LRRC8b-e mRNA” value was “not associated with increases in SWELL1 mRNA”. Also, the “plasma membrane (PM) localization of endogenous SWELL1” value in series [2] is “enhanced”. In addition, in series [3] (HFD-fed and KKAy T2D mice, 5 mg/kg i.p. 4–10 days), the “fasting blood glucose (FG), glucose tolerance (GTT), and insulin tolerance (ITT)” value is “improved”. In addition, in series [3] (KKAa parental strain, 5 mg/kg × 4–10 days), the “hypoglycemia in control strain” value is given as “does not cause hypoglycemia”. The “FG, GTT, and ITT compared to vehicle” value in series [3] (lean, non-T2D, glucose-tolerant mice) is reported as “similar”; in series [3] (same mice after 16 weeks of HFD-feeding, 4 days treatment), “marked improvements”. Besides, the tolerability entry in series [6] is reported as “no overt signs of toxicity”. For the same molecule, the “reduction in body weight compared to vehicle” value in series [7] (16 weeks HFD then intermittent dosing over 5 weeks) was determined as 14%. For the same molecule, the “improvement of NAFLD-activity score (NAS)” value in series [7] (16 weeks HFD then intermittent dosing over 5 weeks, vs vehicle) was > 2 points. In addition, in series [7] (histologic evaluation, vs vehicle), the “hepatic steatosis and hepatocyte damage” value is “significant reductions”. Moreover, the hepatic triglyceride concentrations result in series [7] (vs vehicle) is “lower”. Further, the T-half in series [4] (Intraperitoneal) came to 2.056 h; in series [4] (Intravenous), 1.428 h; in series [4] (Oral), 2.585 h. In series [4] (iWAT, 5 mg/kg i.p. and p.o.), the “PK in adipose tissue” value is “closely tracks serum concentrations”. Besides, the AUC(0-inf) in series [4] (ip, Intraperitoneal) amounted to 23000 ng·h/mL; in series [4] (Intravenous), 5960 ng·h/mL; in series [4] (Oral), 4680 ng·h/mL. Moreover, the Cmax in series [4] (ip, Intraperitoneal) was 4370 ng/mL; in series [4] (Intravenous), 5440 ng/mL; in series [4] (Oral), 781 ng/mL. Further, in series [4], the “Oral Bioavailability (AUCp.o./AUCi.v.)” value is reported as 79%. In addition, the “time plasma concentrations exceed those sufficient for induction of SWELL1 signaling activity (>~100 nM)” value in series [4] was 8 to 12 h.

As usually defined, the AUC(0-inf) is total exposure, with the tail of the curve extrapolated. The low end stands for less exposure, the high end for more exposure. By Cmax is commonly meant the highest concentration seen after dosing.
